Laboratory results from patent US20240208992A1, “MACROCYCLES AS CFTR MODULATORS” (Idorsia Pharmaceuticals Ltd, priority 2021, published 2024).

Biological target: human F508del-CFTR (Homo sapiens, UniProt P13569, DEL508-508)
Assay: F508del-CFTR cell surface expression (corrector activity), DiscoveRx ß-galactosidase complementation chemiluminescence assay in recombinant U2OS cell line;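 also: U2OS cells co-expressing ProLink-tagged F508del-CFTR and a membrane-anchored enzyme acceptor, where more surface CFTR restores β-galactosidase activity measured by chemiluminescence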
Conditions: for EC50: EC50, F508del-CFTR cell surface expression, U2OS cells, 16h compound incubation, geomean values; for Emax: U2OS, in relation to Emax of corrector lumacaftor (=100%), arithmetic mean values

human F508del-CFTR, sequence (P13569 with tags, fused parts or gaps DEL508-508): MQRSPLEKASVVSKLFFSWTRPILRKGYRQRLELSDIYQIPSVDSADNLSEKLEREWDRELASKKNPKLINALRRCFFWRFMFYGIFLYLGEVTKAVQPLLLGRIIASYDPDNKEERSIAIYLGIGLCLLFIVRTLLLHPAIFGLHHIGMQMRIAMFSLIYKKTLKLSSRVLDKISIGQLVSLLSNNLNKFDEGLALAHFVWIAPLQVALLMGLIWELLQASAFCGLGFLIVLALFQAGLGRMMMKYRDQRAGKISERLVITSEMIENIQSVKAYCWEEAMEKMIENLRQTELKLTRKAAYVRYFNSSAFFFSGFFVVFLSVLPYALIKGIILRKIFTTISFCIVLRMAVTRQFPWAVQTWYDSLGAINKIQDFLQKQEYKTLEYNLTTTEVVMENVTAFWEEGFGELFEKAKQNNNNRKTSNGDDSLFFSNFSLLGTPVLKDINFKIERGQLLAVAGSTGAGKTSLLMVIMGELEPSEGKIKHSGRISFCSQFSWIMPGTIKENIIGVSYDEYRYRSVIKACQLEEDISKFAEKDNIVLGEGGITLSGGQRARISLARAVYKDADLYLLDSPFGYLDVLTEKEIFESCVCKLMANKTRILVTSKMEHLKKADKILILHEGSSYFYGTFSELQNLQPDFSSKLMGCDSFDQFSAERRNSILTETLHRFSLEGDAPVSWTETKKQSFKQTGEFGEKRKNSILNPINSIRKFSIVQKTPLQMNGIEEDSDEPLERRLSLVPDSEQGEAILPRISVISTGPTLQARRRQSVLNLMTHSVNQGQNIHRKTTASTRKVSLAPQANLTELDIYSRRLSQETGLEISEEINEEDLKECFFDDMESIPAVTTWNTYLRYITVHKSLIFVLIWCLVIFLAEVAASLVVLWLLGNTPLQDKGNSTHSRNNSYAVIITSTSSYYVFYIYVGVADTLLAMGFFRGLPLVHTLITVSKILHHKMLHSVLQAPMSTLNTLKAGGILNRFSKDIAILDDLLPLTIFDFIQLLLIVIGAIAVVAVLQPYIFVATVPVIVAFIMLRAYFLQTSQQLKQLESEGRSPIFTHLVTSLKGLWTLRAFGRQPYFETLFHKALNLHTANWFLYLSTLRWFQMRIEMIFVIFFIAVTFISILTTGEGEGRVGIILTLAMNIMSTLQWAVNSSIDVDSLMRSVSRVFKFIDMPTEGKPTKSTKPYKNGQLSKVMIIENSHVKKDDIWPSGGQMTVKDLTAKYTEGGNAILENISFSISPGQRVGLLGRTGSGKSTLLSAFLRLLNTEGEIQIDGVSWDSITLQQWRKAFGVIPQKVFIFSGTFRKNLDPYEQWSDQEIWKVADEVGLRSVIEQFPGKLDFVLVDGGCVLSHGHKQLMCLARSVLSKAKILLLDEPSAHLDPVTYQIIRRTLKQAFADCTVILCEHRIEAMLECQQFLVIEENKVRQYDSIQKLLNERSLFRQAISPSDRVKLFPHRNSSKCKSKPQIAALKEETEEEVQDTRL

Row | SMILES | EC50 [nM] | Emax [%]
1 | Cc1cc(CCNC(=O)[C@@H]2CC(=O)N(C)[C@@H](CC(C)C)C(=O)N(C)[C@@H](CCOCc3ccccc3)C(=O)N[C@H](Cc3ccccc3)COc3cnc4ccccc4c3C(=O)N2)on1 [Example 579, (3S,7S,10S,13R)-13-benzyl-10-(2-(benzyloxy)ethyl)-7-isobutyl-6,9-dimethyl-N-(2-(3-methylisoxazol-5-yl)ethyl)-1,5,8,11-tetraoxo-1,2,3,4,5,6,7,8,9,10,11,12,13,14-tetradecahydro-[1]oxa[4,7,10,14]tetraazacycloheptadecino[17,16-c]quinoline-3-carboxamide] | 399 | 131
2 | COc1cc(CCNC(=O)[C@@H]2CC(=O)N(C)[C@@H](CC(C)C)C(=O)N3CCC4(CC4)C[C@@H]3C(=O)N[C@H](Cc3ccccc3)COc3cc(C)nc(OC)c3C(=O)N2)on1 [Example 580, (7′S,11′S,17a′R,20′R)-20′-benzyl-11′-isobutyl-4′-methoxy-N-(2-(3-methoxyisoxazol-5-yl)ethyl)-2′,10′-dimethyl-5′,9′,12′,18′-tetraoxo-5′,6′,7′,8′,9′,10′,11′,12′,14′,15′,17′,17a′,18′,19′,20′,21′-hexadecahydrospiro[cyclopropane-1,16′-dipyrido[2,1-f:3′,4′-p][1]oxa[4,7,10,14]tetraazacycloheptadecine]-7′-carboxamide] | 198 | 319
3 | [2H]C([2H])([2H])Oc1nc(C)cc2c1C(=O)N[C@H](C(=O)NCCc1cc(OC)no1)CC(=O)N(C)[C@@H](CC(C)C)C(=O)N1CCCC[C@@H]1C(=O)N[C@H](Cc1ccccc1)CO2 [Example 581, (7S,11S,17aR,20R)-20-benzyl-11-isobutyl-4-(methoxy-d3)-N-(2-(3-methoxyisoxazol-5-yl)ethyl)-2,10-dimethyl-5,9,12,18-tetraoxo-5,6,7,8,9,10,11,12,15,16,17,17a,18,19,20,21-hexadecahydro-14H-dipyrido[2,1-f:3′,4′-p][1]oxa[4,7,10,14]tetraazacycloheptadecine-7-carboxamide] | 300 | 303
4 | COc1cc(CCNC(=O)[C@@H]2CC(=O)N(C)[C@@H](CC(C)C)C(=O)N(CCC3CCCCC3)CC(=O)N[C@H](Cc3ccccc3)COc3ccnc(OC)c3C(=O)N2)on1 [Example 582, (3R,9S,13S)-3-benzyl-7-(2-cyclohexylethyl)-9-isobutyl-16-methoxy-N-(2-(3-methoxyisoxazol-5-yl)ethyl)-10-methyl-5,8,11,15-tetraoxo-2,3,4,5,6,7,8,9,10,11,12,13,14,15-tetradecahydropyrido[3,4-p][1]oxa[4,7,10,14]tetraazacycloheptadecine-13-carboxamide] | 116 | 279
5 | Cc1ccc2c(c1)OC[C@@H](Cc1ccccc1)NC(=O)CN(C)C(=O)[C@H](CC(C)C)N(C)C(=O)C[C@@H](C(=O)NCCc1ccc3c(c1)OCO3)NC2=O [Example 583, (3R,9S,13S)-N-(2-(benzo[d][1,3]dioxol-5-yl)ethyl)-3-benzyl-9-isobutyl-7,10,18-trimethyl-5,8,11,15-tetraoxo-2,3,4,5,6,7,8,9,10,11,12,13,14,15-tetradecahydrobenzo[p][1]oxa[4,7,10,14]tetraazacycloheptadecine-13-carboxamide] | 339 | 90
6 | COc1cccc(CCNC(=O)[C@@H]2CC(=O)N(C)[C@@H](CC(C)C)C(=O)N3CC[C@@H](C3)C(=O)N[C@H](Cc3ccccc3)COc3ccc(OC)cc3C(=O)N2)c1 [Example 584, (13S,4R,10S,14S)-4-benzyl-14-isobutyl-74-methoxy-N-(3-methoxyphenethyl)-13-methyl-2,8,12,15-tetraoxo-6-oxa-3,9,13-triaza-1(3,1)-pyrrolidina-7(1,2)-benzenacyclopentadecaphane-10-carboxamide] | 575 | 156
7 | COc1cc2c(cc1OC)C(=O)N[C@H](C(=O)NCCc1ccc3c(c1)OCO3)CC(=O)N(C)[C@@H](CC(C)C)C(=O)N(CCC1CCCCC1)CC(=O)N[C@H](Cc1ccccc1)CO2 [Example 585, (3R,9S,13S)-N-(2-(benzo[d][1,3]dioxol-5-yl)ethyl)-3-benzyl-7-(2-cyclohexylethyl)-9-isobutyl-17,18-dimethoxy-10-methyl-5,8,11,15-tetraoxo-2,3,4,5,6,7,8,9,10,11,12,13,14,15-tetradecahydrobenzo[p][1]oxa[4,7,10,14]tetraazacycloheptadecine-13-carboxamide] | 176 | 168
8 | COc1cccc(CCNC(=O)[C@@H]2CC(=O)N(C)[C@@H](CC(C)C)C(=O)N(CCC3CCCCC3)CC(=O)N[C@H](Cc3ccccc3)COc3cc(OC)c(OC)cc3C(=O)N2)c1 [Example 586, (3R,9S,13S)-3-benzyl-7-(2-cyclohexylethyl)-9-isobutyl-17,18-dimethoxy-N-(3-methoxyphenethyl)-10-methyl-5,8,11,15-tetraoxo-2,3,4,5,6,7,8,9,10,11,12,13,14,15-tetradecahydrobenzo[p][1]oxa[4,7,10,14]tetraazacycloheptadecine-13-carboxamide] | 221 | 165
9 | COc1cccc(CCNC(=O)[C@@H]2CC(=O)N(C)[C@@H](CC(C)C)C(=O)N3CCCC[C@@H]3C(=O)N[C@H](Cc3ccccc3)COc3ccc(OC)cc3C(=O)N2)c1 [Example 587, (7S,11S,20R,22aR)-20-benzyl-7-isobutyl-15-methoxy-N-(3-methoxyphenethyl)-8-methyl-6,9,13,22-tetraoxo-1,3,4,6,7,8,9,10,11,12,13,19,20,21,22,22a-hexadecahydro-2H-benzo[p]pyrido[2,1-f][1]oxa[4,7,10,14]tetraazacycloheptadecine-11-carboxamide] | 414 | 106
10 | COc1cccc(CCNC(=O)[C@@H]2CC(=O)N(C)[C@@H](CC(C)C)C(=O)N3CCOC[C@@H]3C(=O)N[C@H](Cc3ccccc3)COc3ccc(OC)cc3C(=O)N2)c1 [Example 588, (7S,11S,20R,22aR)-20-benzyl-7-isobutyl-15-methoxy-N-(3-methoxyphenethyl)-8-methyl-6,9,13,22-tetraoxo-1,3,4,6,7,8,9,10,11,12,13,19,20,21,22,22a-hexadecahydrobenzo[p][1,4]oxazino[3,4-f][1]oxa[4,7,10,14]tetraazacycloheptadecine-11-carboxamide] | 650 | 102
11 | CC(C)C[C@H]1C(=O)N(CCC2CCCCC2)CC(=O)N[C@H](Cc2ccccc2)COc2ccncc2C(=O)N[C@H](C(=O)NCCc2ccc3c(c2)OCO3)CC(=O)N1C [Example 589, (3R,9S,13S)-N-(2-(benzo[d][1,3]dioxol-5-yl)ethyl)-3-benzyl-7-(2-cyclohexylethyl)-9-isobutyl-10-methyl-5,8,11,15-tetraoxo-2,3,4,5,6,7,8,9,10,11,12,13,14,15-tetradecahydropyrido[3,4-p][1]oxa[4,7,10,14]tetraazacycloheptadecine-13-carboxamide] | 298 | 160
12 | COc1cccc(CCNC(=O)[C@@H]2CC(=O)N(C)[C@@H](CC(C)C)C(=O)N(CCC3CCCCC3)CC(=O)N[C@H](Cc3ccccc3)COc3ccncc3C(=O)N2)c1 [Example 590, (3R,9S,13S)-3-benzyl-7-(2-cyclohexylethyl)-9-isobutyl-N-(3-methoxyphenethyl)-10-methyl-5,8,11,15-tetraoxo-2,3,4,5,6,7,8,9,10,11,12,13,14,15-tetradecahydropyrido[3,4-p][1]oxa[4,7,10,14]tetraazacycloheptadecine-13-carboxamide] | 362 | 201
13 | COc1cccc(CCNC(=O)[C@@H]2CC(=O)N(C)[C@@H](CC(C)C)C(=O)N3CCCC[C@@H]3C(=O)N[C@H](Cc3ccccc3)COc3cccc(OC)c3C(=O)N2)c1 [Example 591, (7S,11S,20R,22aR)-20-benzyl-7-isobutyl-14-methoxy-N-(3-methoxyphenethyl)-8-methyl-6,9,13,22-tetraoxo-1,3,4,6,7,8,9,10,11,12,13,19,20,21,22,22a-hexadecahydro-2H-benzo[p]pyrido[2,1-f][1]oxa[4,7,10,14]tetraazacycloheptadecine-11-carboxamide] | 341 | 259
14 | CC(C)C[C@H]1C(=O)N2CCCC[C@H]2C(=O)N[C@H](Cc2ccccc2)COc2ccncc2C(=O)N[C@H](C(=O)NCCc2ccc3c(c2)OCC3)CC(=O)N1C [Example 592, (7S,11S,17aS,20R)-20-benzyl-N-(2-(2,3-dihydrobenzofuran-6-yl)ethyl)-11-isobutyl-10-methyl-5,9,12,18-tetraoxo-5,6,7,8,9,10,11,12,15,16,17,17a,18,19,20,21-hexadecahydro-14H-dipyrido[2,1-f:3′,4′-p][1]oxa[4,7,10,14]tetraazacycloheptadecine-7-carboxamide] | 881 | 119
15 | CC(C)C[C@H]1C(=O)N2CCCC[C@@H]2C(=O)N[C@H](Cc2ccccc2)COc2ccncc2C(=O)N[C@H](C(=O)NCCc2ccc3c(c2)OCC3)CC(=O)N1C [Example 593, (7S,11S,17aR,20R)-20-benzyl-N-(2-(2,3-dihydrobenzofuran-6-yl)ethyl)-11-isobutyl-10-methyl-5,9,12,18-tetraoxo-5,6,7,8,9,10,11,12,15,16,17,17a,18,19,20,21-hexadecahydro-14H-dipyrido[2,1-f:3′,4′-p][1]oxa[4,7,10,14]tetraazacycloheptadecine-7-carboxamide] | 614 | 190
16 | CC(C)C[C@H]1C(=O)N2CCCC[C@@H]2C(=O)N[C@H](Cc2ccccc2)COc2ccncc2C(=O)N[C@H](C(=O)NCCc2ccc3c(c2)OCCO3)CC(=O)N1C [Example 594, (7S,11S,17aR,20R)-20-benzyl-N-(2-(2,3-dihydrobenzo[b][1,4]dioxin-6-yl)ethyl)-11-isobutyl-10-methyl-5,9,12,18-tetraoxo-5,6,7,8,9,10,11,12,15,16,17,17a,18,19,20,21-hexadecahydro-14H-dipyrido[2,1-f:3′,4′-p][1]oxa[4,7,10,14]tetraazacycloheptadecine-7-carboxamide] | 810 | 171
